Source: US8859584B2, “TRPV1 antagonists” (AbbVie Inc., priority 2011, dated 2014)

Tests used:
rats [1] = assay: Sodium Iodoacetate-Induced Knee Joint Osteoarthritic Pain Model (hind limb grip force); format: in vivo; details: rat, 1 hour after administration, 20 days after sodium iodoacetate, read-out: % effect (% return to normalcy of hind limb grip force); for inhibition in vivo at 100 µmol/kg: 100 μmol/kg po single dose; for inhibition in vivo at 30 µmol/kg: 30 μmol/kg po single dose
Procedure: (v) Sodium Iodoacetate-Induced Knee Joint Osteoarthritic Pain Model
Unilateral knee joint osteoarthritis was induced in the rats by a single intra-articular (i.a.) injection of sodium iodoacetate (3 mg in 0.05 mL sterile isotonic saline) into the right knee joint cavity under light isoflurane anesthesia using a 26G needle. […] Pain behavioral assessment of hind limb grip force was conducted by recording the maximum compressive force exerted on the hind limb strain gauge setup, in a commercially available grip force measurement system (Columbus Instruments, Columbus, Ohio). The grip force data was converted to a maximum hindlimb cumulative compressive force (CFmax) (gram force)/kg body weight for each animal. The analgesic effects of test compounds were determined 20 days following the i.a. injection of sodium iodoacetate. The vehicle control group for each compound being tested was assigned 0% whereas the age matched naïve group was assigned as being 100% (normal). The % effect for each dose group was then expressed as % return to normalcy compared to the naïve group. Test compounds were administered orally in 10% ethanol/20% Tween 80/70% polyethylene glycol-400 vehicle at a volume of 2 mL/kg. The assessment of the analgesic effects of test compounds was made 1 hour following oral administration. The assessment of the analgesic effects of test compounds can be made following a single dose or following repeated administration wherein the frequency of dosing is 1 to 2 times daily. The duration of such repeated daily dosing may last for any time greater than one day. A typical duration of repeated daily dosing is about 5 days to about 12 days.

human TRPV1 [2] = molecular target: T1, human TRPV1 (Homo sapiens, UniProt Q8NER1); assay: Acid Activation Assay (pH 5.0, FLIPR intracellular Ca2+, recombinant HEK293 cells); format: cell-based; details: percentage of maximal pH 5.0-induced response remaining; HEK293 hTRPV1; max concentration 37.5 μM
T1 construct: expressed in transfected cells
T1 sequence (Q8NER1 whole entry): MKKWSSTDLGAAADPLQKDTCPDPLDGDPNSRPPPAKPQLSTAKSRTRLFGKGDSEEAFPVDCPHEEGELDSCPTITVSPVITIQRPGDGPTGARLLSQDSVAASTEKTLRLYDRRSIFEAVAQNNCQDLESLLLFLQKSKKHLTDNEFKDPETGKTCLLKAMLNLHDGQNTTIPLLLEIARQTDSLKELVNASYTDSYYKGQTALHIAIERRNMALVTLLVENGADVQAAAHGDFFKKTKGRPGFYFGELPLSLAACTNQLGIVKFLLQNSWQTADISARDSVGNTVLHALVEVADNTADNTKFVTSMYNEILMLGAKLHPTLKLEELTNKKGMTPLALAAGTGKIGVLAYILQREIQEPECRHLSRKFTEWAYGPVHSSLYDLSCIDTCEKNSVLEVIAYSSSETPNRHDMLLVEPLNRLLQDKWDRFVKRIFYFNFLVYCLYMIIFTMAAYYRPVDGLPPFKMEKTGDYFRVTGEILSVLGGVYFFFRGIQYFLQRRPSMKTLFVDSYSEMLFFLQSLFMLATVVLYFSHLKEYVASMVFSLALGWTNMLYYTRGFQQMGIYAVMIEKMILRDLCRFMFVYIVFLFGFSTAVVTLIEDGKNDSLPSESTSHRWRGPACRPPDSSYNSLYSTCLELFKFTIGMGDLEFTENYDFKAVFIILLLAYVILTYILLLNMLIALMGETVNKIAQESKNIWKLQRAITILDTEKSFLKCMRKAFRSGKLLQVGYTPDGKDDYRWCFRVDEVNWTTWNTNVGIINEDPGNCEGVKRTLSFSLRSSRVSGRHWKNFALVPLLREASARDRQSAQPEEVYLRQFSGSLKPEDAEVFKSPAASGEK
Outline: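 HEK293 cells stably expressing recombinant hTRPV1 were loaded with calcium dye for 90-120 min at 25° C and pre-treated with compound for 3 min before a pH 5.0 (DPBS/MES) challenge. Peak FLIPR fluorescence over baseline is given as percentage of the maximal pH 5.0-induced response.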

human TRPV1 [3] = molecular target: T1, human TRPV1; assay: Capsaicin Activation Assay (FLIPR intracellular Ca2+, recombinant HEK293 cells); format: cell-based; details: recombinant HEK293 cells expressing hTRPV1; 50 nM capsaicin; read-out: human TRPV1 capsaicin IC50
rats [4] = assay: Rat Acute Capsaicin-Induced Flinching Behavior; format: in vivo; details: 100 μmol/kg oral, capsaicin 2.5 μg one hour after compound, five minute observation
Procedure: (iv) Rat Acute Capsaicin-Induced Flinching Behavior
Rats were placed in individual observation cages. Following an acclimation period of 30 minutes, selected compounds were administered orally at a dose of 100 μmol/kg orally in a vehicle (10% ethanol/20% Tween 80/70% polyethylene glycol-400) at a volume of 2 mL/kg. One hour after administration of the compound, 2.5 μg of capsaicin in a 10 μL solution of 10% ethanol/90% hydroxypropyl-β-cyclodextrin was injected subcutaneously into the dorsal aspect of the right hind paw. The observation cage was then suspended above mirrors in order to facilitate observation. […] The number of flinching behaviors of the injured paw was recorded during the five minute observation period (Gilchrist, H. D.; Allard, B. L.; Simone, D. A.; Enhanced withdrawal responses to heat and mechanical stimuli following intraplantar injection of capsaicin in rats. Pain, 1996, 67, 179-188). The percent reduction in the number of flinching behaviors produced from oral administration of the test compounds relative to control-treated animals (% effect) is reported in Table 2.

rats [5] = assay: Rat Tail Immersion (noxious thermosensation, 55° C. water bath); format: in vivo; details: morphine 6 mg/kg i.p. in saline, relative to vehicle control
Procedure: (iii) Rat Tail Immersion Protocol:
Compounds were tested for their effects on noxious thermosensation using the tail immersion assay. Testing was performed one hour following oral administration of 100 μmol/kg of the compound in 10% ethanol/20% Tween-80/70% PEG-400 (2 mL/kg). Mophine (6 mg/kg) was administered interperitoneally (i.p.) using saline (2 mL/kg) as the vehicle. For testing, a circulating water bath was heated to 55° C. Thirty to sixty minutes post dosing, the rats were handled for a few seconds to calm them down and then cupped with their back against the testers hand at a slight angle with head facing away from tester. With rat in one hand and a 0.01 second stopwatch in the other hand, the tail was quickly immersed 6-8 cm in water bath or to a distance leaving 2-3 cm of tail out of water. The timer was started simultaneously. […] This response latency (in seconds) was recorded. Process was repeated 3 times with 3-4 minutes between readings for a final average.
For a given compound, a percent increase in the average response latency (in seconds) for tail withdrawal relative to a vehicle control was determined % increase=[(tc−tv)/tv]×100% tc=response time (in seconds) with oral dosing of compounds tv=response time (in seconds) with oral dosing of vehicle […]
Table 1 reports the % increase in tail withdrawal latency measured for the compounds tested. […]

For `CC1(C)C[C@@H](NC(=O)Nc2cccc3c2C[C@H](O)C3)c2ccc(F)c(F)c2O1` [Example 9, 1-[(4R)-7,8-difluoro-2,2-dimethyl-3,4-dihydro-2H-chromen-4-yl]-3-[(2R)-2-hydroxy-2,3-dihydro-1H-inden-4-yl]urea], the inhibition in vivo at 100 µmol/kg (rats [1]) was 67%, the “human TRPV1 H+ (max % remain)” value (human TRPV1 [2]) was 82% and the IC50 (human TRPV1 [3]) was 60 nM. For the same compound, the “% effect (percent reduction in number of flinching behaviors relative to control-treated animals)” value (rats [4]) was 76%.

`C[C@]1(CF)C[C@@H](NC(=O)Nc2cccc3c2C[C@H](O)C3)c2ccc(C(F)(F)F)cc2O1` [Example 43, 1-[(2R,4R)-2-(fluoromethyl)-2-methyl-7-(trifluoromethyl)-3,4-dihydro-2H-chromen-4-yl]-3-[(2R)-2-hydroxy-2,3-dihydro-1H-inden-4-yl]urea] was tested, and the inhibition in vivo at 30 µmol/kg (rats [1]) was 38%, the “human TRPV1 H+ (max % remain)” value (human TRPV1 [2]) was 48% and the IC50 (human TRPV1 [3]) was 18 nM.

`O=C(Nc1cccc2c1C[C@H](O)C2)N[C@@H]1CC(CF)(CF)Oc2cc(C(F)(F)F)ccc21` [Example 7, 1-[(4R)-2,2-bis(fluoromethyl)-7-(trifluoromethyl)-3,4-dihydro-2H-chromen-4-yl]-3-[(2R)-2-hydroxy-2,3-dihydro-1H-inden-4-yl]urea] was tested, and the inhibition in vivo at 100 µmol/kg (rats [1]) was 68%, the “human TRPV1 H+ (max % remain)” value (human TRPV1 [2]) was 48% and the IC50 (human TRPV1 [3]) was 47 nM. For the same compound, the “% effect (percent reduction in number of flinching behaviors relative to control-treated animals)” value (rats [4]) was 94%.

`CC1(C)C[C@@H](NC(=O)Nc2cccc3c2C[C@H](O)C3)c2ccc(F)cc2O1` [Example 5, 1-[(4R)-7-fluoro-2,2-dimethyl-3,4-dihydro-2H-chromen-4-yl]-3-[(2R)-2-hydroxy-2,3-dihydro-1H-inden-4-yl]urea] was tested, and the inhibition in vivo at 100 µmol/kg (rats [1]) was 57%, the “human TRPV1 H+ (max % remain)” value (human TRPV1 [2]) was 76% and the IC50 (human TRPV1 [3]) was 32 nM.

With `CC1(C)C[C@@H](NC(=O)Nc2cccc3c2C[C@@H](O)C3)c2cccc(OC(F)(F)F)c2O1` [Example 88, 1-[(4R)-2,2-dimethyl-8-(trifluoromethoxy)-3,4-dihydro-2H-chromen-4-yl]-3-[(2S)-2-hydroxy-2,3-dihydro-1H-inden-4-yl]urea] the “human TRPV1 H+ (max % remain)” value (human TRPV1 [2]) was 23%, the IC50 (human TRPV1 [3]) was 16 nM and the “% effect (percent reduction in number of flinching behaviors relative to control-treated animals)” value (rats [4]) was 69%.

With `CC1(C)C[C@@H](NC(=O)Nc2cccc3c2C[C@H](O)C3)c2ccc(F)c(Cl)c2O1` [Example 12, 1-[(4R)-8-chloro-7-fluoro-2,2-dimethyl-3,4-dihydro-2H-chromen-4-yl]-3-[(2R)-2-hydroxy-2,3-dihydro-1H-inden-4-yl]urea] the “human TRPV1 H+ (max % remain)” value (human TRPV1 [2]) was 77%, the IC50 (human TRPV1 [3]) was 36 nM and the “% effect (percent reduction in number of flinching behaviors relative to control-treated animals)” value (rats [4]) was 53%.

`O=C(Nc1cccc2c1C[C@H](O)C2)N[C@@H]1CCOc2cc(OC(F)(F)F)ccc21` [Example 14, 1-[(2R)-2-hydroxy-2,3-dihydro-1H-inden-4-yl]-3-[(4R)-7-(trifluoromethoxy)-3,4-dihydro-2H-chromen-4-yl]urea] was tested, and the inhibition in vivo at 30 µmol/kg (rats [1]) was 54%, the “human TRPV1 H+ (max % remain)” value (human TRPV1 [2]) was 48% and the IC50 (human TRPV1 [3]) was 44 nM.

`CC1(C)C[C@@H](NC(=O)Nc2cccc3c2C[C@@H](O)C3)c2ccc(F)c(Cl)c2O1` [Example 36, 1-[(4R)-8-chloro-7-fluoro-2,2-dimethyl-3,4-dihydro-2H-chromen-4-yl]-3-[(2S)-2-hydroxy-2,3-dihydro-1H-inden-4-yl]urea] was tested, and the inhibition in vivo at 100 µmol/kg (rats [1]) was 46%, the “human TRPV1 H+ (max % remain)” value (human TRPV1 [2]) was 32% and the IC50 (human TRPV1 [3]) was 26 nM. For the same compound, the “% effect (percent reduction in number of flinching behaviors relative to control-treated animals)” value (rats [4]) was 71%.

For `O=C(Nc1cccc2c1C[C@H](O)C2)N[C@@H]1CC(CF)(CF)Oc2cc(Cl)ccc21` [Example 4, 1-[(4R)-7-chloro-2,2-bis(fluoromethyl)-3,4-dihydro-2H-chromen-4-yl]-3-[(2R)-2-hydroxy-2,3-dihydro-1H-inden-4-yl]urea], the inhibition in vivo at 100 µmol/kg (rats [1]) was 67%, the “human TRPV1 H+ (max % remain)” value (human TRPV1 [2]) was 57% and the IC50 (human TRPV1 [3]) was 40 nM. The “% effect (percent reduction in number of flinching behaviors relative to control-treated animals)” value (rats [4]) was 54%.

For `CC1(C)C[C@@H](NC(=O)Nc2cccc3c2C[C@H](O)C3)c2ccc(Cl)cc2O1` [Example 13, 1-[(4R)-7-chloro-2,2-dimethyl-3,4-dihydro-2H-chromen-4-yl]-3-[(2R)-2-hydroxy-2,3-dihydro-1H-inden-4-yl]urea], the inhibition in vivo at 30 µmol/kg (rats [1]) was 52%, the “human TRPV1 H+ (max % remain)” value (human TRPV1 [2]) was 62% and the IC50 (human TRPV1 [3]) was 28 nM.

`CC1(C)C[C@@H](NC(=O)Nc2cccc3c2C[C@H](O)C3)c2ccc(Cl)c(F)c2O1` [Example 10, 1-[(4R)-7-chloro-8-fluoro-2,2-dimethyl-3,4-dihydro-2H-chromen-4-yl]-3-[(2R)-2-hydroxy-2,3-dihydro-1H-inden-4-yl]urea] was tested, and the inhibition in vivo at 17 µmol/kg (rats [1]; 17 μmol/kg po single dose) was 49%, the “human TRPV1 H+ (max % remain)” value (human TRPV1 [2]) was 74% and the IC50 (human TRPV1 [3]) was 27 nM.

`CN1CC[C@]23c4c5ccc(O)c4O[C@H]2[C@@H](O)C=C[C@H]3[C@H]1C5` [Morphine] was tested, and the “% Increase in Tail Withdrawal Latency” value (rats [5]) was “+++ (greater than or equal to 25% increase)”.

For `O=C(Nc1cccc2c1C[C@H](O)C2)N[C@@H]1CCc2cc(C(F)(F)F)ccc21` [Example 40, 1-[(2R)-2-hydroxy-2,3-dihydro-1H-inden-4-yl]-3-[(1R)-5-(trifluoromethyl)-2,3-dihydro-1H-inden-1-yl]urea], the inhibition in vivo at 30 µmol/kg (rats [1]) was 57%, the “human TRPV1 H+ (max % remain)” value (human TRPV1 [2]) was 30% and the IC50 (human TRPV1 [3]) was 7 nM.
